Results taken from US11976076B1 (priority 2023, dated 2024).
In brackets after ≈: the same amount, converted by molar mass.

Test system: multidrug-resistant (MDR) strains of Mycobacterium tuberculosis
Assay: microbe, parasite or virus in culture
Type: cell-based
Conditions: 192 h, read-out: Anti-tubercular activity (MIC) MDR-TB

Compared with `O=c1[nH]c(=S)[nH]c2[nH]c(=S)nc(-c3c[nH]c4ccccc34)c12` [Compound 4b, 5-(1H-Indol-3-yl)-2,7-dithioxo-2,3,7,8-tetrahydropyrimido[4,5-d]pyrimidin-4(1H)-one], `O=c1[nH]c(=O)c2c(-c3c[nH]c4ccccc34)nc(=S)[nH]c2[nH]1` [Compound 4a, 5-(1H-Indol-3-yl)-7-thioxo-7,8-dihydropyrimido[4,5-d]pyrimidine-2,4(1H,3H)-dione] is 2-fold higher in MIC: 8 µg/mL (≈ 24.4 µM) for the first, 16 µg/mL (≈ 51.4 µM) for the second.

`Cn1c(=O)c2c(-c3c[nH]c4ccccc34)nc(=S)[nH]c2n(C)c1=O` [Compound 4c, 5-(1H-Indol-3-yl)-1,3-dimethyl-7-thioxo-7,8-dihydropyrimido[4,5-d]pyrimidine-2,4(1H,3H)-dione] was tested, and the MIC was 4 µg/mL (≈ 11.8 µM).
